In patent US20090215759A1, “MODULATORS FOR AMYLOID BETA” (priority 2008, published 2009) one finds melting point data, which are given here for 17 compounds.

Structures are written as SMILES.

One may read the melting point as the temperature, or range, at which the solid turns liquid. `COc1cc(Nc2nc(-c3ccc(-n4cccn4)cc3)cc(C(F)(F)F)n2)ccc1-n1cnc(C)c1` displayed a melting point of 252 to 254 °C.

With `CCOC(=O)c1cnc(Nc2ccc(-n3cnc(C)c3)c(OC)c2)nc1-c1ccc(Cl)cc1` [Example 28, Ethyl 4-(4-chloro-phenyl)-2-[3-methoxy-4-(4-methyl-imidazol-1-yl)-phenylamino]-pyrimidine-5-carboxylate], the melting point was 216 to 218 °C.

In turn, `COc1cc(Nc2nccc(-c3cccnc3)n2)ccc1-n1cnc(C)c1` returned a melting point of 204 to 206 °C.

Take `Cc1cn(-c2ccc(Nc3nccc(-c4ccc(C(F)(F)F)cc4)n3)cc2F)cn1`: the melting point was 196 to 197 °C.

For `CCOC(=O)c1cnc(Nc2ccc(-n3cnc(C)c3)c(F)c2)nc1-c1ccc(Cl)cc1`, the melting point was in the range of 232 to 234 °C.

As for `CCOC(=O)c1cnc(Nc2ccc(-n3cnc(C)c3)c(F)c2)nc1-c1ccc(C(F)(F)F)cc1`, the melting point is 219 to 221 °C.

Take `COc1cc(Nc2nccc(-c3ccc(Cl)cc3)n2)ccc1-n1cnc(C)c1`: the melting point lay within 202 to 204 °C.

As to `Cc1cc(Cc2ccccc2)nc(Nc2ccc(-n3cnc(C)n3)c(F)c2)n1`, the melting point is 183 to 185 °C.

Turning to `COc1cc(Nc2nc(-c3ccc(-n4ccnc4)cc3)cc(C(F)(F)F)n2)ccc1-n1cnc(C)c1`, the melting point is 248 to 250 °C.

Turning to `COc1cc(Nc2nc(C)cc(Cc3ccccc3)n2)ccc1-c1cnc(C)s1` [Example 209, (4-Benzyl-6-methyl-pyrimidin-2-yl)-[3-methoxy-4-(2-methyl-thiazol-5-yl)-phenyl]-amine], the melting point was in the range of 138 to 141 °C.

The compound `COc1cc(Nc2nc(-c3ccc(Cl)cc3)cc(C(F)(F)F)n2)ccc1-n1cnc(C)c1` returned a melting point of 202 to 204 °C.

Compound `Cc1cn(-c2ccc(Nc3nc(C)cc(Cc4ccccc4)n3)cc2F)cn1` displayed a melting point of 155 to 158 °C.

The compound `COc1cc(Nc2nccc(N3CCC(O)CC3)n2)ccc1-n1cnc(C)c1` came in with a melting point of 197 to 200 °C.

`CCOC(=O)c1cnc(Nc2ccc(-n3cnc(C)c3)c(OC)c2)nc1-c1cccc(C#N)c1` returned a melting point of 195 to 197 °C.

`Cc1cc(Cc2ccccc2)nc(Nc2ccc(-n3ccnc3CO)cc2)n1`: the melting point was in the range of 95 to 98 °C.

The compound `CCOC(=O)C(c1ccccc1)c1nc(Nc2ccc(-n3cnc(C)c3)c(OC)c2)ncc1-c1ccccc1` (centres unmarked) returned a melting point of 84 to 86 °C.

As to `Cc1cn(-c2ccc(Nc3nc(-c4ccc(Cl)cc4)cc(C(F)(F)F)n3)cc2F)cn1`, the melting point fell in the range of 248 to 250 °C.
